# Experimental data as given in patent US7081461B1, “Quinazoline compounds and pharmaceutical compositions containing them” (AstraZeneca AB, priority 1999, dated 2006).
# Assays:
# MCF7 cells = assay: In vitro cell cycle analysis assay (FACS, propidium iodide); type: cell-based, human; conditions: MCF7, 24.8 μM, 24 hours
# Procedure: (c) In Vitro Cell Cycle Analysis Assay
# This assay determines the ability of a test compound to arrest cells in specific phases of the cell cycle. Many different mammalian cell lines could be used in this assay and MCF7 cells are included here as an example. MCF-7 cells were seeded at 3×10^5 cells per T25 flask (Costar) in 5 ml DMEM (no phenol red 10% FCS, 1% L-glutamine 1% penicillin/streptomycin). Flasks were then incubated overnight in a humidified 37° C. incubator with 5% CO2. The following day 1 ml of DMEM (no phenol red 10% FCS, 1% L-glutamine 1% penicillin/streptomycin) carrying the appropriate concentration of test compound solubilised in DMSO was added to the flask. A no compound control treatments was also included (0.5% DMSO). The cells were then incubated for a defined time (usually 24 hours) with compound. After this time the media was aspirated from the cells and they were washed with 5 ml of prewarmed (37° C.) sterile PBSA, then detached from the flask by brief incubation with trypsin and followed by resuspension in 10 ml of 1% Bovine Serum Albumin (BSA, Sigma-Aldrich Co.) in sterile PBSA. The samples were then centrifuged at 2200 rpm for 10 min. The supernatant was aspirated and the cell pellet was resuspended in 200%1 of 0.1% (w/v) Tris sodium citrate, 0.0564% (w/v) NaCl, 0.03% (v/v) Nonidet NP40, [pH 7.6]. Propridium Iodide (Sigma Aldrich Co.) was added to 40 μg/ml and RNAase A (Sigma Aldrich Co.) to 100 μg/ml. The cells were then incubated at 37° C. for 30 minutes. The samples were centrifuged at 2200 rpm for 10 min, the supernatant removed and the remaining pellet (nuclei) resuspended in 200%1 of sterile PBSA. […] The samples were then transferred to LPS tubes and DNA content per cell analysed by Fluorescence activated cell sorting (FACS) using a FACScan flow cytometer (Becton Dickinson). Typically 25000 events were counted and recorded using […]. Cell cycle distribution of the population was calculated using Modfit software (Verity Software) and expressed as percentage of cells in G0/G1, S and G2/M phases of the cell cycle.
# aurora2 kinase = biological target: T1, aurora2 kinase (Homo sapiens, UniProt O14965); assay: In vitro aurora2 kinase inhibition test; type: biochemical
# T1 construct: 6 His with spacer region and rTEV protease cleavage site (pFastBac HTc) (N); made in house; host or cells: Spodoptera frugiperda Sf21 insect cells (baculovirus, pFastBac HTc)
# T1 sequence (O14965 1-403): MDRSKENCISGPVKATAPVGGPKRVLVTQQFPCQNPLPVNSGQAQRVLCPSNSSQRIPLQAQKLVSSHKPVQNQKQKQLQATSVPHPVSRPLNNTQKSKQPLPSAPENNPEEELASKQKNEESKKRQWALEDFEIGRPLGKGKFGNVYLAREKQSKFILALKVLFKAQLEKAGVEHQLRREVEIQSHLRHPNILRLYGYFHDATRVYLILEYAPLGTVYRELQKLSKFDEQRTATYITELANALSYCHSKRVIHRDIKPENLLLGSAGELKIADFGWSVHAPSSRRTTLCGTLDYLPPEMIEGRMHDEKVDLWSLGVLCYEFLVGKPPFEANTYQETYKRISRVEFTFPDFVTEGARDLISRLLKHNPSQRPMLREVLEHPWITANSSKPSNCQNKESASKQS
# MCF-7 cells = assay: In vitro cell proliferation assay, Assay 1 (CyQUANT cell density); type: cell-based; conditions: Homo sapiens, MCF7, 72 h, MCF-7, 3 days with compound, read-out: concentration giving 50% inhibition of cell proliferation
# Source text: (b) In Vitro Cell Proliferation Assay
# These and other assays can be used to determine the ability of a test compound to inhibit the growth of adherent mammalian cell lines, for example the human tumour cell line MCF7.
# Assay 1: MCF-7 (ATCC HTB-22) or other adherent cells were typically seeded at 1×10^3 cells per well (excluding the peripheral wells) in DMEM (Sigma Aldrich) without phenol red, plus 10% foetal calf serum, 1% L-glutamine and 1% penicillin/streptomycin in 96 well tissue culture treated clear plates (Costar). The following day (day 1), the media was removed from a no treatment control plate and the plate stored at −80° C. […] The fluorescence of the wells was then measured using a fluorescence microplate reader (gain 70, 2 reads per well, 1 cycle with excitation 485 nm and emission 530 nm using a CytoFluor plate reader (PerSeptive Biosystems Inc.)). […]
structure (smiles),measurement,setting,value
COc1ccnc(COc2ccc(Nc3ncnc4cc(OC)c(OC)cc34)cc2C)c1 [Compound 43],% Cells in G1,MCF7 cells,37.29%
same,% Cells in G2/M,MCF7 cells,28.78%
same,% Cells in S,MCF7 cells,33.93%
same,IC50,aurora2 kinase,0.465 µM
same,IC50,MCF-7 cells,12.4 µM
